Measurements from article PMC5988656, “Phase I studies of AZD1208, a proviral integration Moloney virus kinase inhibitor in solid and haematological cancers” (British Journal of Cancer, 2018).
Where “and” joins values, the source holds several entries; their conditions need not be identical. Equal entries are not always repeated.

Columns and labels:
CYP3A4 = CYP3A4 activity assessed by 4-β-hydroxycholesterol levels, solid tumour study; assay type: in vivo, human; details: for 4-β-hydroxycholesterol Day 15 concentration / 4-β-hydroxycholesterol ratio (Day 15/Day 1): individual subjects
Protocol: In the solid tumour study, blood samples for 4β-hydroxycholesterol analysis were collected pre-dose at Cycle 0, Day 1; Cycle 1 (Day 8 and 15); and Cycle 2, Day 15.
The activity of CYP3A4 was assessed by analysing 4-β-hydroxycholesterol levels in samples collected from five patients at AZD1208 doses of 700 or 800 mg.

pBAD S112 = test: PD: phosphorylated BAD at S112 by MesoScale Discovery ELISA, AML study; assay type: in vivo, human
Protocol: (§1) For AZD1208 PD evaluations, bone marrow aspirates were collected (pretreatment and Cycle 1, Day 1, 2–6 h following administration of AZD1208) and peripheral blood samples were collected (pretreatment on Cycle 1, Day 1; and on-treatment at Cycle 1, Day 1 at 3, 6 and 24 h post-dose; Cycle 1, Day 14 at pre-dose, 3 and 6 h post-dose). Mononuclear cells were isolated, and protein lysates prepared, for subsequent analysis of phosphorylated BAD at S112 by MesoScale Discovery ELISA and phosphorylation of 4E-BP1 at S65 by NanoPro immunoassay [unpublished data: McEachern et al. 2018, manuscript in preparation]. Samples were considered evaluable when the baseline biomarker levels were above the background signal (as defined by buffer-only negative control samples) and within the linear range of assay. Additionally, only blood samples containing detectable blasts were considered for analysis.

[1] = test system: patients with AML or advanced solid tumours; test: Both dose-escalation studies pooled: adverse events; assay type: in vivo, human
Protocol: Safety and tolerability were assessed from the time of informed consent until the end of follow-up (defined as 30 and 28 days after study treatment was discontinued for the AML and solid tumour studies, respectively) by evaluation of adverse events (AEs), vital signs, ECGs and laboratory assessments. The CTCAE (version 4.0) was utilised to grade all AE events.
AEs were summarised by Medical Dictionary for Regulatory Activities (MedDRA) system organ class, MedDRA preferred term and CTCAE grade. Summary statistics of mean, median, standard deviation, minimum, maximum and number of observations were used.

advanced solid tumours = test: Solid tumour study: tumour response (RECIST v.1.1); assay type: in vivo, human; details: for Best response: CR / Best response: Death / Best response: Not evaluable / Best response: Partial response / Best response: Progression / Best response: Stable disease ≥6 weeks: RECIST criteria
Protocol: In the solid tumour study, responses were evaluated using RECIST v.1.1. Contrast-enhanced CTs of the chest, abdomen, pelvis and neck were performed at screening (≤28 days before the start of study treatment), every 6 weeks (±1 week) up to 12 weeks, and then every 12 weeks (±1 week) until discontinuation of study treatment or withdrawal of consent, starting from Day 1 of Cycle 1.

p4E-BP1 S65 = test: PD: phosphorylation of 4E-BP1 at S65 by NanoPro immunoassay, AML study; assay type: in vivo, human
Protocol: as §1

AML cell lines = details: cited from earlier work
relapsed/refractory AML = test: AML study: antileukaemic activity (IWG response criteria); assay type: in vivo, human
Text: The antileukaemic activity in AML was according to the International Working Group (IWG) response criteria for AML.[17] Response criteria were modified such that an M-1 marrow was defined as 1% to ≤5% and a partial response as >5% to 25%.[18]

[2] = evaluable bone marrow samples, single dose
[3] = Investigator assessed, 120 mg, n=4
[4] = Investigator assessed, 240 mg, n=6
[5] = Investigator assessed, 480 mg, n=6
[6] = Investigator assessed, 700 mg, n=7
[7] = Investigator assessed, 900 mg, n=9
[8] = Modified Cheson criteria, 120 mg, n=4
[9] = Modified Cheson criteria, 240 mg, n=6
[10] = Modified Cheson criteria, 480 mg, n=6
[11] = Modified Cheson criteria, 700 mg, n=7
[12] = Modified Cheson criteria, 900 mg, n=9

## N[C@@H]1CCCN(c2c(/C=C3\SC(=O)NC3=O)cccc2-c2ccccc2)C1 [AZD1208]
CYP3A4; five patients, 700 or 800 mg
  Increase in 4-β-hydroxycholesterol levels on Day 15 compared with Day 1: ~ 4 fold
CYP3A4; five subjects, 700 or 800 mg
  4-β-hydroxycholesterol Day 15 concentration, Gmean (CV%): 114.1 (29.2) ng ml
  4-β-hydroxycholesterol ratio (Day 15/Day 1), Gmean (CV%): 4.38 (23.9)
CYP3A4; dose 700 mg
  4-β-hydroxycholesterol Day 15 concentration: 85.5 ng·mL and 91.9 ng·mL and 175 ng·mL
  4-β-hydroxycholesterol ratio (Day 15/Day 1): 3.41 and 5.93 and 4.90
CYP3A4; dose 800 mg
  4-β-hydroxycholesterol Day 15 concentration: 128 ng·mL and 110 ng·mL
  4-β-hydroxycholesterol ratio (Day 15/Day 1): 4.67 and 3.49
CYP3A4; multiple dosing, 700 or 800 mg
  CYP3A4 activity: induced
pBAD S112; [2]
  Patients with reductions in pBAD S112: 7/17
pBAD S112; peripheral blood, all dose levels
  Patients with ≥50% reduction from baseline of pBAD S112: 9/10
[1]
  Patients who experienced adverse events: 98.5%
  Patients with gastrointestinal adverse events: 92.5%
Advanced solid tumours; 35 patients
  Discontinued study treatment due to disease progression, patients: 65.7%
Advanced solid tumours; 120 mg, n=3
  Best response: CR: 0 n (%)
  Best response: Death: 0 n (%)
  Best response: Not evaluable: 0 n (%)
  Best response: Partial response: 0 n (%)
  Best response: Progression: 1 (33.3) n (%)
  Best response: Stable disease ≥6 weeks: 2 (66.7) n (%)
Advanced solid tumours; 240 mg, n=7
  Best response: CR: 0 n (%)
  Best response: Death: 0 n (%)
  Best response: Not evaluable: 0 n (%)
  Best response: Partial response: 0 n (%)
  Best response: Progression: 2 (28.6) n (%)
  Best response: Stable disease ≥6 weeks: 5 (71.4) n (%)
Advanced solid tumours; 360 mg, n=5
  Best response: CR: 0 n (%)
  Best response: Death: 0 n (%)
  Best response: Not evaluable: 1 (20.0) n (%)
  Best response: Partial response: 0 n (%)
  Best response: Progression: 3 (60.0) n (%)
  Best response: Stable disease ≥6 weeks: 1 (20.0) n (%)
Advanced solid tumours; 540 mg, n=7
  Best response: CR: 0 n (%)
  Best response: Death: 0 n (%)
  Best response: Not evaluable: 1 (14.3) n (%)
  Best response: Partial response: 0 n (%)
  Best response: Progression: 3 (42.9) n (%)
  Best response: Stable disease ≥6 weeks: 3 (42.9) n (%)
Advanced solid tumours; 700 mg, n=6
  Best response: CR: 0 n (%)
  Best response: Death: 1 (16.7) n (%)
  Best response: Not evaluable: 2 (33.3) n (%)
  Best response: Partial response: 0 n (%)
  Best response: Progression: 3 (50.0) n (%)
  Best response: Stable disease ≥6 weeks: 1 (16.7) n (%)
Advanced solid tumours; 800 mg, n=5
  Best response: CR: 0 n (%)
  Best response: Death: 0 n (%)
  Best response: Not evaluable: 1 (20.0) n (%)
  Best response: Partial response: 0 n (%)
  Best response: Progression: 3 (60.0) n (%)
  Best response: Stable disease ≥6 weeks: 1 (20.0) n (%)
Advanced solid tumours; RECIST, all doses
  Best objective response: progression: 14 n
  Best objective response: stable disease for ≥6 weeks: 13 n
  Objective response rate: 0%
Advanced solid tumours; five patients evaluable
  Patients with stable disease at Week 12: four
Advanced solid tumours; one patient with prostate cancer
  Prostate-specific antigen (PSA) levels: considerable reduction
p4E-BP1 S65; [2]
  Patients with reductions in p4E-BP1 S65: 3/11
p4E-BP1 S65; peripheral blood samples
  Patients with decreases in p4E-BP1 S65: 4/7
AML cell lines
  Effect on cell cycle and apoptosis: induced cell cycle arrest and apoptosis
relapsed/refractory AML; 32 eligible patients
  Discontinued study treatment due to a lack of therapeutic response, patients: 59.4%
relapsed/refractory AML; [3]
  Best response: CR: 0 n (%)
  Best response: CRi: 0 n (%)
  Best response: Morphologic leukaemia free: 0 n (%)
  Best response: Non-response: 3 (75.0) n (%)
  Best response: Partial remission: 0 n (%)
relapsed/refractory AML; [4]
  Best response: CR: 0 n (%)
  Best response: CRi: 0 n (%)
  Best response: Morphologic leukaemia free: 0 n (%)
  Best response: Non-response: 3 (50.0) n (%)
  Best response: Partial remission: 0 n (%)
relapsed/refractory AML; [5]
  Best response: CR: 0 n (%)
  Best response: CRi: 0 n (%)
  Best response: Morphologic leukaemia free: 0 n (%)
  Best response: Non-response: 3 (50.0) n (%)
  Best response: Partial remission: 0 n (%)
relapsed/refractory AML; [6]
  Best response: CR: 0 n (%)
  Best response: CRi: 0 n (%)
  Best response: Morphologic leukaemia free: 0 n (%)
  Best response: Non-response: 1 (14.3) n (%)
  Best response: Partial remission: 0 n (%)
relapsed/refractory AML; [7]
  Best response: CR: 0 n (%)
  Best response: CRi: 0 n (%)
  Best response: Morphologic leukaemia free: 0 n (%)
  Best response: Non-response: 2 (22.2) n (%)
  Best response: Partial remission: 0 n (%)
relapsed/refractory AML; [8]
  Best response: CR: 0 n (%)
  Best response: CRi: 0 n (%)
  Best response: Morphologic leukaemia free: 0 n (%)
  Best response: Non-response: 4 (100) n (%)
  Best response: Partial remission: 0 n (%)
relapsed/refractory AML; [9]
  Best response: CR: 0 n (%)
  Best response: CRi: 0 n (%)
  Best response: Morphologic leukaemia free: 0 n (%)
  Best response: Non-response: 6 (100) n (%)
  Best response: Partial remission: 0 n (%)
relapsed/refractory AML; [10]
  Best response: CR: 0 n (%)
  Best response: CRi: 0 n (%)
  Best response: Morphologic leukaemia free: 0 n (%)
  Best response: Non-response: 6 (100) n (%)
  Best response: Partial remission: 0 n (%)
relapsed/refractory AML; [11]
  Best response: CR: 0 n (%)
  Best response: CRi: 0 n (%)
  Best response: Morphologic leukaemia free: 0 n (%)
  Best response: Non-response: 7 (100) n (%)
  Best response: Partial remission: 0 n (%)
relapsed/refractory AML; [12]
  Best response: CR: 0 n (%)
  Best response: CRi: 0 n (%)
  Best response: Morphologic leukaemia free: 0 n (%)
  Best response: Non-response: 9 (100) n (%)
  Best response: Partial remission: 0 n (%)
relapsed/refractory AML; all doses
  Clinical responses according to IWG criteria: no clinical responses
